Results from patent publication US7585893B2, “Anti-cancer composition comprising DMXAA or related compound” (Cancer Research Technology Limited, priority 2002, dated 2009).
“And” between values parts separate entries of the source, which are not always exact repeats. Equal entries are not always repeated. Where two headings read alike, the source gives them in different places.

How the values were obtained:
[1] = oral; Zhao et al; cited from earlier work
[2] = tested on: Colon 38 tumour; assay: Colon 38 tumour growth delay, oral DMXAA (Experiments I and II); format: in vivo, C57B1/6 mice; conditions: for mice cured completely: 30+15+15 mg/kg orally at 0, 4, 8 h
Description: C57B1/6 mice from the Animal Resource Unit, University of Auckland, were bred and housed under conditions of constant temperature and humidity, with sterile bedding and food, according to institutional ethical guidelines. All mice were aged between 8 and 12 weeks.
DMXAA was synthesized as the sodium salt (Rewcastle et al (1990) Journal of National Cancer Institute 82:528-529). DMXAA sodium salt was dissolved in sterile water and was administered orally by gavage.
Colon 38 tumour fragments (˜1 mm^3) were implanted subcutaneously (s.c.) in the left flank of anaesthetized (sodium pentobarbital, 81 mg/kg) mice. The experiments were initiated when tumours were approximately 3-4 mm (approximately 20 mg mass) in diameter. Tumour-bearing mice were treated with drugs according to the administration schedule described before, and the tumours measured using calipers, three times weekly thereafter. Tumour volumes were calculated as O.52a^2b, where a and b are the minor and major axes of the tumour, respectively. For graphical representation the arithmetic means were calculated for each time point, counting cured tumours as zero volume.
Two groups of 5 mice were implanted with tumours. The treatment group received DMXAA according to the schedule shown, the control group received no DMXAA. The individual mice in each group were not marked, and so any one line of the spreadsheet data shown in Table 1 could be from any individual mouse of a particular group.
The data were normalised, to enable plotting of the average tumour growth beginning from a relative size of 1 (see FIG. 1).
This example was performed using four groups of mice. Group 1 (control, n=5) received no treatment. Group 2 (n=5) received two 15 mg/kg doses of DMXAA. Group 3 (n=5) received a single 30 mg/kg dose of DMXAA. Group 4 (n=6) received three doses of DMXAA in concentrations of 30+15+15 mg/kg. In this experiment tumours were all 14 mm^3 at the start of the experiment. Data were normalised by division by 14 to give size relative to initial size.
The tumour growth delay experiment was conducted using 2 drug regimes: untreated controls (n=5) and oral DMXAA (n=5) administered in 3 doses. The first dose (30 mg/kg), was administered at t=0 hours followed by two lower doses each of 15 mg/kg at t=4 hours and t=8 hours respectively. Tumour size was measured thrice weekly and the results normalised as described above. The results are shown in Table 1 (raw data), Table 2 (normalised data) and FIG. 1, Expt. I (plotted as a graph).
In this example, the tumour growth delay experiment was conducted using 4 drug regimes: untreated controls (Group 1, n=5); two 15 mg/kg doses of DMXAA separated by a 4 hour interval (Group 2, n=5); a single 30 mg/kg dose of DMXAA (Group 3, n=5); three doses of DMXAA in concentrations of 30+15+15 mg/kg administered at t=0, 4 and 8 hours respectively (Group 4, n=6). The 30 mg/kg dose is the maximum tolerated single dose Zhao et al (Cancer Chemother Pharmacol. 2002 January; 49(1):20-6). Tumour size was measured thrice weekly and the results normalised as described above. The results are shown in Table 3 (raw data), Table 4 (normalised data) and FIG. 1, Expt. II (plotted as a graph).

[3] = tested on: tumour; conditions: Zhao et al, cited from earlier work
[4] = tested on: HT29 human colon cancer cells; assay: HT29 human colon carcinoma xenograft, oral dosing (Experiment 3); format: in vivo; conditions: HT29 xenograft in nude mice; 28 mg/kg oral, or 28 + 15 + 15 mg/kg at 0, 4, 8 h
Description: Nude mice were implanted with 5×10^6 HT29 human colon cancer cells, subcutaneously. […] Tumours were then measured using callipers every 2-3 days and volumes calculated. Comparative tumour growth curves are plotted with respect to those at the onset of treatment (relative tumour volume).

[5] = tested on: tumour blood flow; conditions: Phase I clinical trials; well-tolerated doses; cited from earlier work

## Cc1ccc2c(=O)c3cccc(CC(=O)O)c3oc2c1C [DMXAA, 5,6-dimethylxanthenone-4-acetic acid]
[1]
  maximum tolerated single dose: 30 mg/kg
[2]; 30+15+15 mg/kg orally
  side effects of multiple dose strategy: without the serious side effects
[2]; Expt I, within 24 days
  mice cured completely: 4/5
[2]; Expt I, 30+15+15 mg/kg orally at 4 h intervals, 0 day, individual mice, 15 mg/kg
  Tumor volume: 6.3 mm^3 and 18.8 mm^3 (2×) and 14.1 mm^3 (2×)
[2]; Expt II, 30 mg/kg orally single dose, 0 day
  Tumor volume: 14.0 mm^3
[2]; Expt II, 2×15 mg/kg oral doses, 4 h interval
  tumour growth over time-course: tumours continued to grow
[2]; Expt II, 15 − 15 mg/kg orally, 4 h interval, 0 day
  Tumor volume: 14.0 mm^3
[2]; Expt II, within 17 days
  mice cured completely: 6/6
[2]; Expt II, 30 − 16 − 15 mg/kg orally, 0 day
  Tumor volume: 14.0 mm^3
[2]; Expt II, 30 − 16 − 15 mg/kg orally, 17 day
  Tumor volume: 0.0 mm^3
[2]; Expt II, oral 30 mg/kg single dose, day 0
  Normalised tumour size (relative to initial size): 1
[2]; Expt II, oral 15 − 15 mg/kg, day 0
  Normalised tumour size (relative to initial size): 1
[2]; Expt II, oral 30 − 15 − 15 mg/kg, day 0
  Normalised tumour size (relative to initial size): 1
[2]; Expt II, oral 30 − 15 − 15 mg/kg, day 17
  Normalised tumour size (relative to initial size): 0
[2]; Expt II, single 30 mg/kg oral dose
  tumour growth over time-course: tumours continued to grow
[3]; intraperitoneal administration
  cures: 40%
[3]; single dose orally administered
  cures: no cures
[4]
  antitumour activity by the oral route: induces antitumour activity
[5]
  tumour blood flow (dynamic MRI): significant reduction in tumour blood flow
